Laboratory results published in patent US7524862B2 (Boehringer Ingelheim International GmbH, priority 2004, dated 2009).

Target: T1, human hMCH-1R (Homo sapiens, UniProt Q99705)
T1 construct: expressed in transfected cells; host or cells: CHO/Galpha16 cells (stably transfected), membranes
Test: MCH-1 receptor binding test
Settings: membranes from CHO/Galpha16 cells stably transfected with hMCH-1R; 125I-MCH
Procedure: Membranes from CHO/Galpha16 cells stably transfected with human hMCH-1R are resuspended using a syringe (needle 0.6×25 mm) and diluted in test buffer (50 mM HEPES, 10 mM MgCl2, 2 mM EGTA, pH 7.00; 0.1% bovine serum albumin (protease-free), 0.021% bacitracin, 1 μg/mL aprotinin, 1 μg/mL leupeptin and 1 μM phosphoramidone) to a concentration of 5 to 15 μg/mL. […] After the incubation, the reaction is filtered using a cell harvester through 0.5% PEI treated fiberglass filters (GF/B, Unifilter Packard). The membrane-bound radioactivity retained on the filter is then determined after the addition of scintillator substance (Packard Microscint 20) in a measuring device (TopCount of Packard). […] The analysis of the concentration binding curve is carried out on the assumption of one receptor binding site.

T1 sequence (Q99705 whole entry): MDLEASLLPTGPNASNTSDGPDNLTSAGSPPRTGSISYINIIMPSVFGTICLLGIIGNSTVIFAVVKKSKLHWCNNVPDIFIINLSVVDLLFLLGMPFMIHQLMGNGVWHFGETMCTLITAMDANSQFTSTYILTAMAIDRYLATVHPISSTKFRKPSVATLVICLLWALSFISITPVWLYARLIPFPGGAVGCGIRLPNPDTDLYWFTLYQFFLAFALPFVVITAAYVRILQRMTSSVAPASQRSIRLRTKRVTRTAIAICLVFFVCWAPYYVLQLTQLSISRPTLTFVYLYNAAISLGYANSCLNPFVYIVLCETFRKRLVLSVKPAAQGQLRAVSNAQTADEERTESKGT

Row | IC50 [nM] | SMILES
1 | 246 | Cc1cc(N2CCC(C)CC2)nc2ccc(C#Cc3ccc(-c4ccc(Cl)cc4)cn3)cc12 [Example 1.43, 6-[5-(4-chlorophenyl)pyridin-2-ylethynyl]-4-methyl-2-(4-methylpiperidin-1-yl)quinoline]
2 | 6.8 | Cc1cc(NC(C)C)nc2ccc(C#Cc3ccc(-c4ccc(Cl)cc4)cn3)cc12 [Example 1.44, {6-[5-(4-chlorophenyl)pyridin-2-ylethnyl]-4-methylquinolin-2-yl}isopropylamine]
